Data published in PMC4077824, “Conserved Prosegment Residues Stabilize a Late-Stage Folding Transition State of Pepsin Independently of Ground States” (PLoS ONE, 2014).
“Also recorded” adds a separate entry of the source. Where no end group is shown, it is not given here.

Assays:
refolded pepsin (Rp) [1] = biological target: T1, refolded pepsin (Rp) (Sus scrofa, UniProt P00791); test: PS-catalyzed folding of Rp to Np (recovery of Np activity); type: biochemical, porcine; conditions: for k f (PS-catalyzed folding rate constant): 1 µM Rp, 30 µM PS, pH 5.3 (20 mM acetic acid/NaOH, 100 mM NaCl), Np activity assayed at pH 1.2, 25°C with KPAEFF(NO2)AL, monoexponential fit, mean ± SD from non-linear curve fitting, 3-5 measurements; for k f (PS-catalyzed folding rate constant) / ΔΔG^‡ (change in folding activation energy upon mutation): 15°C; for ΔΔG^‡ (change in folding activation energy upon mutation): from k f, pH 5.3, relative to WT, ± SD by propagation of errors
T1 construct: Only the R13 and K36 side-chains of the PS form hydrogen bonds with the mature pepsin domain; purchased Sigma (St. Louis, MO, USA)
Description: PS-catalyzed folding of Rp to Np
PS-catalyzed folding was carried out by combining 1 µM Rp and 30 µM PS, in a volume of 100 µl, at pH 5.3 (20 mM acetic acid/NaOH with 100 mM NaCl) and 15°C. Aliquots were taken at several time intervals, diluted 20-fold in 50 mM phosphoric acid buffer, pH 1.2, incubated for 5 min at 25°C and assayed for Np activity using the KPAEFF(NO2)AL substrate. The recovery of Np activity with time, t, was fit with a monoexponential function (y = a – bexp(–k f t)) to obtain the PS-catalyzed folding rate constant, k f. Under these conditions, PS binding to Rp reached equilibrium within the dead-time of mixing (<8 sec), as judged by Trp-fluorescence.
(§1) The change in stability of the folding transition state upon mutation was calculated using [drawing 3] (3) where k f, wt and k f, mut are the PS-catalyzed folding rate constants of the wild-type and mutant PS peptides. The change in equilibrium stability of PS-Np relative to PS-Rp upon mutation of the PS (ΔΔGPS(Np-Rp)) was determined as the difference between the changes in binding energies, using [drawing 4] (4) and [drawing 5] (5)
Temperature dependence of PS-catalyzed folding
PS-catalyzed folding could be measured only up to 15 °C for PSwt, as the reaction was too fast at higher temperatures. […] Given the linear temperature dependence it could be reasonably assumed that changes in activation energies (mutant – wild-type) would be unchanged from 15 °C to 20 °C, and so could be compared directly with changes in binding energies (wild-type – mutant) that were determined at 20 °C.

refolded pepsin (Rp) [2] = biological target: T1, refolded pepsin (Rp); test: PS binding to Rp (Trp-fluorescence); set-up: species or system porcine; conditions: for Kd: 0.6-1.2 µM Rp, 20 mM acetic acid/NaOH pH 5.3 without added NaCl, ≥10 min, Trp-fluorescence ex 295 nm, em 315 nm, mean ± SD from non-linear curve fitting, 3-5 measurements, read-out: K d (PS-Rp dissociation constant); for Kd / ΔΔGPS-Rp (change in PS-Rp binding energy upon mutation): 20°C; for ΔΔGPS-Rp (change in PS-Rp binding energy upon mutation): from K d, pH 5.3, relative to WT, ± SD by propagation of errors; for effect on affinity for Rp / PS-Rp stability (in words): pH 5.3, 20°C, compared with PSwt
Description: The change in intrinsic tryptophan fluorescence of pepsin was used to measure the binding of PS to Rp and to determine the dissociation constant, K d. Rp solutions were diluted to between 0.6 and 1.2 µM in 20 mM acetic acid/NaOH buffer, pH 5.3, and mixed with various amounts of PS. After incubating the samples at 20°C for ≥10 minutes, the intrinsic tryptophan fluorescence was measured using a PTI spectrofluorophotometer (Photon Technology International, Inc., Birmingham NJ, USA), with excitation at 295 nm and emission measured at 315 nm. The change in fluorescence, ΔF i, at each PS concentration, [PS], was normalized relative to the maximum change, ΔF max, and fit according to [drawing 1] (1) where [Rp] is the total concentration of pepsin.
PS binding to Rp was measured in buffer without added 100 mM NaCl in order to obtain more accurate measurements of K d, owing to a larger change in signal in the absence of salt. Additionally, without added 100 mM NaCl it was possible to isolate the PS-Rp binding step from the catalyzed folding step thereby improving the determination of K d.
as §1
(§2) Here, ΔΔGbind refers to either ΔΔGPS-Rp, determined from K d values, or ΔΔGPS-Np, determined from K i values. The Φ-value for each mutant corresponds to eq 3 divided by eq 5. Additional details are included in the supporting information section (Text S1).

native pepsin (Np) = biological target: T2, native pepsin (Np) (Sus scrofa, UniProt P00791); test: PS binding to Np (competitive inhibition of KPAEFF(NO2)AL hydrolysis); type: biochemical, porcine; conditions: for Ki: 10 nM Np, 20 mM acetic acid/NaOH pH 5.3, 100 mM NaCl, 5 min incubation, substrate KPAEFF(NO2)AL 0.1 mM, absorbance 300 nm, competitive model, mean ± SD from non-linear curve fitting, 3-5 measurements, read-out: K i (PS-Np inhibition constant); for Ki / ΔΔGPS-Np (change in PS-Np binding energy upon mutation): 20°C; for ΔΔGPS-Np (change in PS-Np binding energy upon mutation): from K i, pH 5.3, relative to WT, ± SD by propagation of errors; for effect on affinity for Np / PS-Np stability (in words): pH 5.3, 20°C, PS inhibition of Np, compared with PSwt
T2 construct: Only the R13 and K36 side-chains of the PS form hydrogen bonds with the mature pepsin domain; purchased Sigma (St. Louis, MO, USA)
Description: PS binding to Np was determined by using the PS as a competitive inhibitor and measuring the inhibition constant, K i. Hydrolysis of the KPAEFF(NO2)AL substrate was measured by following the decrease in absorbance at 300 nm using a Biochrom Ultrospec 3100pro UV-Vis spectrophotometer (Biochrom Ltd., Cambridge, England) in 20 mM acetic acid/NaOH buffer, pH 5.3, containing 100 mM NaCl. Np samples were diluted to 10 nM and incubated with PS for 5 min at 20°C and assayed for activity. The reaction rates were normalized to the activity in the absence of PS and the data fit using the competitive inhibitor form of the Michaelis-Menten equation [drawing 2] (2) where v0 is the initial reaction rate, V max is the maximum reaction rate, [S] is the substrate concentration (fixed at 0.1 mM), [I] is the inhibitor concentration, and K M is the Michaelis constant.
as §1, §2

T2 sequence (P00791 60-385): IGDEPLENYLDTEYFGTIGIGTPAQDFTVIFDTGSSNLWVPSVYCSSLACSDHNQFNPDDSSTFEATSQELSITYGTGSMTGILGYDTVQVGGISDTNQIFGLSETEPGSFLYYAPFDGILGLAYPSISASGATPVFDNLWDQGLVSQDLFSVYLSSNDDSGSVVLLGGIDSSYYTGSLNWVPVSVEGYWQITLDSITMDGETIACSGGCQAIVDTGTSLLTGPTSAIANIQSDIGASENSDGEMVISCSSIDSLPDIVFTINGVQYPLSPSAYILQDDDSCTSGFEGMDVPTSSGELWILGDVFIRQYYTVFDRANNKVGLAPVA
T1 sequence (P00791 60-385): as above

k f (PS-catalyzed folding rate constant) (refolded pepsin (Rp) [1])	ΔΔG^‡ (change in folding activation energy upon mutation) (refolded pepsin (Rp) [1])	Kd (refolded pepsin (Rp) [2])	ΔΔGPS-Rp (change in PS-Rp binding energy upon mutation) (refolded pepsin (Rp) [2])	Ki (native pepsin (Np))	ΔΔGPS-Np (change in PS-Np binding energy upon mutation) (native pepsin (Np))	effect on rate of PS-catalyzed folding (in words) (refolded pepsin (Rp) [1]; pH 5.3, 15°C, compared with PSwt)	Sequence	effect on affinity for Rp / PS-Rp stability (in words) (refolded pepsin (Rp) [2])	effect on affinity for Np / PS-Np stability (in words) (native pepsin (Np))
0.27 ± 0.03 min⁻¹	0.94 ± 0.15 kcal/mol	1190 ± 230 nM	0.79 ± 0.12 kcal/mol	50.9 ± 6.9 nM	-0.14 ± 0.13 kcal/mol		LVKAPLVRKKSLRQNLIKNGKLKDFLKTHKHNPASKYFPEAAAL [V4A]	relatively large destabilizing effect on PS-Rp	very small stabilizing effect on PS-Np; also recorded: stabilizing to the native state
1.40 ± 0.26 min⁻¹	0.01 ± 0.18 kcal/mol	210 ± 90 nM	-0.21 ± 0.24 kcal/mol	394 ± 65.1 nM	1.05 ± 0.14 kcal/mol	no effect	LVKVPLVRKKSLRQNLAKNGKLKDFLKTHKHNPASKYFPEAAAL [I17A]	negligible effect on PS-Rp binding; also recorded: negligible effect on PS-Rp and PS-TS stability	largest reduction in affinities for Np; also recorded: one of the most destabilizing mutations to the PS-Np complex
1.42 ± 0.34 min⁻¹		310 ± 30 nM		64.8 ± 11.4 nM			LVKVPLVRKKSLRQNLIKNGKLKDFLKTHKHNPASKYFPEAAAL [WT]		
